Data on twelve molecules can be found in US20230158057A1, “COMPOSITIONS AND METHODS FOR THE TREATMENT OF PAIN” (Duke University, priority 2020, published 2023).

The subject of one data set is mice with CIPN or BCP. In words: Conditioned place preference (CPP) assay in chronic pain (CIPN and BCP) models. The data set is classed as in vivo, mouse. The note with it: mice with neuropathic pain (CIPN), i.t. 35 nmol. The method, then:
(§1) All mice underwent 3 d of preconditioning habituation in a temperature- and humidity-controlled room under low-light conditions between 08:00-16:00 in a two compartment CPP chamber (Med Associates Inc.). The two compartments differed by both visual and tactile cues. On the 4th day, animal behavior was video-recorded using a webcam connected to a laptop computer, and animal movement was automatically tracked for 15 minutes using the ANY-Maze software (Stoelting). […] On the conditioning day(s) (day 5 for single trial; day 5-7 for repeated trials), two pairing sessions were performed, with vehicle pairing in the AM session and drug treatment (e.g., vehicle or drug) in the PM session, separated by 4 h. In the AM session, mice always received vehicle (10 μl saline, delivered via i.t. injection under isoflurane anesthesia) and were immediately placed in their preferred CPP chamber for 2 h. […] 24 h after the completion of the pairing experiments, mice were placed in the CPP test box with access to both chambers and behavior was recorded for 15 minutes and analyzed using the ANY-Maze software for chamber preference. CPP score was calculated as the inverse of the time spent in the preferred chamber according to: [post-preference (sec)—pre-preference (sec)]. Vehicle served as a negative control for these experiments, while morphine (three trials/naïve mice) or clonidine (single trial/ongoing pain) served as positive controls.

Data set [1] is described as follows: Solubility noted at drug preparation. The note with it: diluted in PBS containing 5% DMSO and 0.0625% Tween-20. The data set is classed as physicochemical. The procedure:
For the experiments utilizing i.t. 2′3′-cGAMP and 3′3′-cGAMP complexed with Lipofectamine 2000 (ThermoFisher, 11668), 10 μg 2′3′-cGAMP or 3′3′-cGAMP was incubated at room temperature for 30 minutes in sterile PBS with 3 μl Lipofectamine 2000. In this case, the vehicle control was 3 μl Lipofectamine 2000 in PBS, as in a previous study which used this approach. […] For experiments utilizing rabbit anti-IFN-α or -β neutralizing antibodies, a polyclonal rabbit IgG antibody served as the control. Antibodies were utilized in vivo at 300 ng/mouse or in vitro at 300 ng/ml. Paclitaxel was administered via repeated i.p. injections every other day for 4 days at a dose of 2 mg/kg. For the whole mount DRG recordings, young mice (4-6 weeks) were administered a single 6 mg/kg dose one week prior to the experiment. All intrathecal injections were performed under brief anesthesia with 2-2.5% isoflurane. Drugs administered by intrathecal injection were preceded by shaving a small area on the back corresponding to the injection site, followed by spinal puncture using a 30-gauge needle between the L5-L6 levels to deliver a maximum of 5-10 μl into the cerebrospinal fluid. Successful intrathecal injection was always confirmed by a brisk tail-flick upon delivery. […]

Data set [2] concerns naïve mice. In words: Von Frey testing of mechanical thresholds in naïve mice (WT and knockout). The data set is classed as in vivo, mouse. Particulars: for mechanical sensory thresholds (von Frey): i.t. injection. The method, then:
(§2) Reflexive-based sensory testing in mice: All behavioral testing in mice was performed in a specialized humidity- and light-controlled mouse behavior facility maintained at 21-24° C., with testing conducted between the hours of 8:00-16:00. Mice were habituated to the testing environment for at least 2 days prior to baseline testing. All tests were performed by an experimenter who was blinded to experimental conditions, including genotypes and drug treatment. For multi-day experiments using STING agonists, mice were tested in the same room at approximately the same time each day. To measure mechanical sensitivity, mice were confined to individual chambers with non-transparent borders on an elevated mesh rack, preventing mice from visualizing or interacting with one another during the testing period. Mouse hindpaws were stimulated with a series of von Frey filaments with logarithmically increasing stiffness (0.02-2.56 g, Stoelting), which was applied perpendicularly to the central plantar surface. We determined the 50% paw withdrawal threshold using the up-down method. […] To test cold sensitivity, mice were again placed on an elevated metal mesh floor in isolated chambers, and a ˜20 μl acetone drop was applied to the central plantar surface of the mouse hindpaw using a pipette.
For the experiments utilizing i.t. 2′3′-cGAMP and 3′3′-cGAMP complexed with Lipofectamine 2000 (ThermoFisher, 11668), 10 μg 2′3′-cGAMP or 3′3′-cGAMP was incubated at room temperature for 30 minutes in sterile PBS with 3 μl Lipofectamine 2000. In this case, the vehicle control was 3 μl Lipofectamine 2000 in PBS, as in a previous study which used this approach. […] For experiments utilizing rabbit anti-IFN-α or -β neutralizing antibodies, a polyclonal rabbit IgG antibody served as the control. Antibodies were utilized in vivo at 300 ng/mouse or in vitro at 300 ng/ml. Paclitaxel was administered via repeated i.p. injections every other day for 4 days at a dose of 2 mg/kg. For the whole mount DRG recordings, young mice (4-6 weeks) were administered a single 6 mg/kg dose one week prior to the experiment. All intrathecal injections were performed under brief anesthesia with 2-2.5% isoflurane. Drugs administered by intrathecal injection were preceded by shaving a small area on the back corresponding to the injection site, followed by spinal puncture using a 30-gauge needle between the L5-L6 levels to deliver a maximum of 5-10 μl into the cerebrospinal fluid. Successful intrathecal injection was always confirmed by a brisk tail-flick upon delivery. For the experiments involving intraplantar (i.pl.) injection, IFN-α was dissolved in sterile saline and administered at the concentrations indicated in the figures in a total volume of 20 μl, administered under 2-2.5% isoflurane anesthesia to minimize animal stress. For these experiments, vehicle (saline) or IFN-α were slowly and carefully expressed into the left dorsal hindpaw of anesthetized mice and allowed to perfuse the tissue for ˜20 seconds prior to removal of the needle. […] Mechanical sensory testing was done anteriorly and care was taken to avoid Von Frey filament stimulation of the injection site.

The test system of a further data set is tumor-bearing femora. In words: Bone fractures of tumor-bearing femora on d17 after LLC inoculation. The data set is classed as in vivo, mouse. Particulars: vehicle 87.5%. The procedure: Development and progression of cancer-induced osteolytic bone destruction frequently leads to bone fracture, which is an important component of SREs in patients with bone metastasis and is associated with decreased overall survival. On d17 after LLC inoculation, mice were euthanized and the tumor bearing femora were collected and the distal tumor-bearing femur where bone destruction occurs was analyzed.

The test system of data set [3] is mice with intrafemoral Lewis lung carcinoma (LLC). In words: LLC bone cancer pain model, systemic (i.p.) treatment, behavior tests and body weight. In kind it is in vivo, mouse. The procedure: Bone cancer pain model. The murine cell lines LLC1, LL/2-Luc2 or E0771 were lightly digested using 0.05% trypsin, followed by centrifugation to remove poorly digested cell clusters. Cells were then resuspended in PBS at a concentration of 1×10^8 cells/ml. The inoculation was performed as previously described (Wang, K. et al. “PD-1 blockade inhibits osteoclast formation and murine bone cancer pain.” The Journal of clinical investigation, (2020); Wang, Z. et al. “Anti-PD-1 treatment impairs opioid antinociception in rodents and nonhuman primates.” Sci Transl Med 12 (2020)). Briefly, mice were anesthetized with 4% isoflurane and the left leg was shaved and the skin disinfected with 10% povidone-iodine and 75% ethanol. A superficial incision (0.5-1 cm) was made near the knee joint, exposing the patellar ligament. […] The syringe contents were slowly injected into the femoral cavity over a 2-minute interval. To prevent further leakage of tumor cells outside of the bone cavity, the outer injection site was sealed with silicone adhesive (Kwik-Sil, World Precision Instruments, US). Animals with surgery related movement dysfunction or with outside bone tumor injection were excluded from the study. Drug treatment. […] All other reagents were dissolved in sterile saline or PBS. For experiments utilizing rabbit anti-IFN-α or -β neutralizing antibodies, a polyclonal rabbit IgG antibody served as the control. […] Behavior tests. All the behavioral tests were conducted in a blinded manner and performed during between the hours of 9:00-16:00. Animals were habituated in a light and humidity controlled testing environment for at least 2 days prior to baseline testing. For Von Frey testing, mice were confined to individual 5×5 cm boxes placed on an elevated wire grid. A blinded experimenter stimulated their hindpaws using a series of von Frey filaments with logarithmically increasing stiffness (0.02-2.56 g, Stoelting). Each filament was applied perpendicularly to the central plantar surface. The 50% paw withdrawal threshold was determined using Dixon's up-down method.

The test system of data set [4] is rhesus macaques (Macaca mulatta). Particulars: comparison value; cited from earlier work.
The test system of data set [5] is naïve mice. In words: Naloxone reversal of antinociception. In kind it is in vivo, mouse. Particulars: naloxone 10 mg/kg i.p.; morphine 2 nmol i.t., DMXAA or ADU-S100 35 nmol i.t. The procedure: Following naloxone delivery, mice were tested within 15 minutes. For the experiments testing whether mice developed tolerance to the effects of STING agonists, vehicle or DMXAA (35 nmol) were administered via i.t. injection. Naïve mice received five single injections at D0, D3, D6, D9, and D12, with testing each day 4 h after injection. SNI mice received injections on two consecutive days beginning on D7 (D7 and D8) and every 48 h afterwards following the conclusion of sensory testing (D10, D12, D14, D16, and D18). Spinal cords (L4-L5) were collected for analysis of glial cell activation at D21 following SNI.

Data set [6] concerns naïve mice. In words: Conditioned place preference (CPP) assay in naïve mice. The note with it: i.t., morphine 2 nmol, DMXAA or ADU-S100 35 nmol. The procedure:
as §1

Data set [7] has as its system Ifnar1+/+ and Ifnar1−/− mice. In kind it is in vivo, mouse. Particulars: i.t. IFN-α. The method, then:
as §2, with “pipette. […]” for “pipette.”

In data set [8] the test system is naïve mice. Kind of data set: Hot plate test after resiniferatoxin ablation of TRPV1+ nociceptors. In kind it is in vivo, mouse. A general note: Thermal pain tests record how soon the animal reacts.

Entries after “also recorded” stand apart in the source; their conditions may differ.

In the case of `Clc1cccc(Cl)c1N=C1NCCN1` [clonidine], the “conditioned place preference, single pairing” value in the data set with mice with CIPN or BCP was “robust CPP”.
As to `O=C(Nc1ccc(I)cc1)c1ccc([N+](=O)[O-])o1` [C-176], in [1], the solubility entry is recorded as “poor solubility”. Moreover, in the data set on naïve mice [2] (naïve mice, i.t.), the “mechanical sensitivity after i.t. inhibitor or neutralizing antibody” value is “transient dose-dependent hypersensitivity”.
Regarding `Nc1nc2c(ncn2[C@@H]2O[C@@H]3COP(=O)(O)O[C@H]4[C@@H](O)[C@H](n5cnc6c(N)ncnc65)O[C@@H]4COP(=O)(O)O[C@@H]2[C@@H]3O)c(=O)[nH]1` [2′3′-cGAMP, 2′3′ cyclic guanosine monophosphate—adenosine monophosphate], the “mechanical sensory thresholds (von Frey)” value in the data set on naïve mice [2] (naïve mice) is “induced dose-dependent antinociception; also recorded: elevated mechanical thresholds”.
As for `O=P(O)(O)C(O)(Cn1ccnc1)P(=O)(O)O` [ZA, Zoledronic acid], in the data set with tumor-bearing femora, the “mice with distal bone fractures” value came out at 25%. Also, the body weight entry in data set [3] (LLC model, twice i.p.) is given as “no effect on overall body weight”.
With `CN1CC[C@]23c4c5ccc(O)c4O[C@H]2[C@@H](O)C=C[C@H]3[C@H]1C5` [morphine], in data set [4], the “intrathecal dose producing analgesia in NHPs” value is recorded as 100 nmol. In the data set on naïve mice [5], the “effect of naloxone on the antinociception of the substance” value is given as “reversed”. Moreover, the “conditioned place preference, repeated pairing” value in the data set on naïve mice [6] is given as “induces CPP”.
Turning to `Nc1nc2c(ncn2[C@@H]2O[C@@H]3COP(=O)(O)O[C@H]4[C@@H](O)[C@H](n5cnc6c(N)ncnc65)O[C@@H]4COP(=O)(O)O[C@H]3[C@H]2O)c(=O)[nH]1` [3′3′-cGAMP], in the data set with naïve mice [2] (naïve mice), the “mechanical sensory thresholds (von Frey)” value is “induced dose-dependent antinociception; also recorded: elevated mechanical thresholds”. In data set [3] (d11, 4 h after single i.p. injection), the “acute effect on bone cancer pain” value is “could attenuate cold allodynia or/and mechanical allodynia”.
`CCc1ccc(NC(=O)Nc2c[nH]c3ccccc23)cc1` [H-151]: the solubility result in [1] is “poor solubility”. In addition, the “mechanical sensitivity after i.t. inhibitor or neutralizing antibody” value in the data set with naïve mice [2] (naïve mice, i.t.) is given as “transient dose-dependent hypersensitivity”.
Take IFN-α: the “mechanical hypersensitivity induced by intraplantar IFN-α” value in data set [7] was “could block the mechanical hypersensitivity induced by intraplantar IFN-α”. In addition, in the data set on naïve mice [2] (i.t.), the “antinociception in WT vs Ifnar1-gKO/cKO mice” value is “induced transient antinociception in WT mice which was abolished in Ifnar1-gKO/cKO mice” and the “mechanical hypersensitivity of STINGgt/gt mice” value was “could transiently rescue mechanical hypersensitivity”. Also, the “paw withdrawal thresholds after i.t. recombinant interferon” value (“paw withdrawal thresholds” below) with naïve mice [2] (naïve mice, i.t.) is given as “increased paw withdrawal thresholds”. The “paw withdrawal thresholds” value in the data set with naïve mice [2] (naïve mice, i.t., listed as IFN-a) is “induced transient, dose-dependent antinociception”.
As for `C=C(C)[C@]12C[C@@H](C)[C@@]34O[C@](Cc5ccccc5)(O[C@@H]1[C@@H]3C=C(COC(=O)Cc1ccc(O)c(OC)c1)C[C@]1(O)C(=O)C(C)=C[C@@H]41)O2` [RTX], the “heat sensitivity in the hot plate test” value in the data set with naïve mice [8] is on record as “heat insensitivity”.
In the case of poly(I:C), in the data set with naïve mice [2] (i.t. 1 μg, knockout genotypes), the “effect on mechanical thresholds in knockout mice” value was “abolished in Ifnar1fx/fx; Nav1.8-Cre and RIG-I−/− mice”. Further, in the data set with naïve mice [2] (i.t. 1 μg, responsive genotypes), the “mechanical thresholds after i.t. dsDNA or dsRNA analog” value is “elevated mechanical thresholds similarly in Ifnar1fx/fx (WT), STINGgt/gt, and cGAS−/− mice”.
“IFN-β: recombinant mouse IFN-β produced in mammalian cells (PBL Assay Science, 12410-1)”: in the data set with naïve mice [2] (i.t.), the “antinociception in WT vs Ifnar1-gKO/cKO mice” value was “induced transient antinociception in WT mice which was abolished in Ifnar1-gKO/cKO mice” and the “mechanical hypersensitivity of STINGgt/gt mice” value is reported as “could transiently rescue mechanical hypersensitivity”. Moreover, in the data set on naïve mice [2] (naïve mice, i.t.), the “paw withdrawal thresholds” value is recorded as “induced transient, dose-dependent antinociception; also recorded: increased paw withdrawal thresholds”.
Take `Cn1cc(Nc2nccc(N3C[C@H]4CC[C@@H](C3)N4C(=O)[C@@H]3CC3(F)F)n2)cn1` [PF-06700841]: the “mechanical sensitivity after i.t. inhibitor or neutralizing antibody” value with naïve mice [2] (naïve mice, i.t.) is “induced transient, dose-dependent mechanical allodynia”. The “effect of pretreatment on IFN-β-induced antinociception” value in the data set with naïve mice [2] (naïve mice, i.t., 1 μg) is recorded as “abolished IFN-β-induced antinociception”.
